Results on 2 molecules are retold here after patent US5348980A, “Enantiomers derived from (S)-2-amino-2-(3,4-dichlorobenzyl)-1-propanol, their use and method of preparation” (Institute de Recherche Jouveinal, priority 1992, dated 1994).

Counter-ions that a name gives are not always drawn.

By ED50 is commonly meant the dose that gives a 50% effect, or the effect in half of the subjects.

This test has as its system bronchoconstriction caused by 100 nmol/kg of histamine. The test is described as follows: Histamine-induced bronchoconstriction test (Konzett and Rossler), intranasal-powder (In.P.) administration. Type of test: in vivo, guinea pigs. An excerpt: Furthermore, the antihistaminic properties were studied in guinea pigs by the bronchoconstriction test performed according to the method of H. Konzett and R. Rossler (Arch. Exp. Path. Pharmak.--Naunym Schmiedeberg - 195, 71-74, 1940). The products of the invention were studied in this test after administration in solution or in suspension via the intravenous and intraduodenal routes, and also in powder form via the intranasal route. Irrespective of the administration route, the preparation of the animals employed in the test consists in first anesthetizing male guinea pigs weighing 350 to 400 g by intraperitoneal (i.p.) injection of a sterile and isotonic solution containing 25% (w/v.) of ethyl carbamate on the basis of 6.0 ml/kg, and in then fitting the animals with a tracheal cannula to permit measurement of the pulmonary pressure, a cannula in the right jugular vein for the intravenous (i.v.) administration of solution, and also a cannula in the left carotid artery for qualitative observation of the blood pressure. The animals are then connected to a pump (Harvard, ref. 50-1718) in order to maintain an artificial ventilation at a frequency of 60 insufflations per minute; the intratracheal pressure is recorded by an assembly comprising a transducer, an amplifier and a recorder (Gould, respective refs.: PLOEZ, 13-4615-50 and 8188-[…]-06). Fitted in this way, the animals are left undisturbed for 10 minutes before the beginning of the actual experiment, which is carried out in different ways according to the administration route envisaged. c) intranasal-powder (In.p) administration The test product is administered via a nasal insufflation of a powder consisting of 20 mg of lactose loaded with the appropriate quantity of the test product. Before this insufflation, the artificial ventilation of the animal is momentarily stopped in order to facilitate the pulmonary penetration of the compound. […] Failing this expression, the results are expressed as a % change at the time in question and for a given concentration of the test product. […]

Turning to `C=CCN(C)[C@](C)(CO)Cc1ccc(Cl)c(Cl)c1` [Example 2, hydrochloride, (S)-(+)-N-allyl-2-methylamino-2-(3,4-dichlorobenzyl)-1-propanol], the median effective dose (ED50) at t = 5 min, inhibition of histamine-induced bronchoconstriction came out at 1.77 µmol/kg.

As to `C=CCN(C)[C@](C)(CO)Cc1ccc(Cl)c(Cl)c1` [Example 2, base, (S)-(+)-N-allyl-2-methylamino-2-(3,4-dichlorobenzyl)-1-propanol], where the note is “Cavia porcellus, 5 min, t = 5 min, read-out: ED50 at t = 5 min, inhibition of histamine-induced bronchoconstriction”, the ED50 was 1.28 µmol/kg.
